Data published in patent US20260283946A1, “PHARMACEUTICAL DRY POWDER COMPOSITION AND METHODS FOR TREATING RESPIRATORY TRACT INFECTIONS” (priority 2022, published 2026).

Test system: Vero cells
Assay: Luciferase assay of total cellular ATP
Format: cell-based, African green monkey
Conditions: 5 μM ouabain, 0.4, 0.8 and 1.1% BREATHOX POWDER, 1 h
Description: Then to see the available ATP a luciferase assay was performed. Changes of the total concentration of ATP in Vero cells exposed to increasing concentrations of NaCl for 1 or 72 h was determined by plate microfluorimetry recordings with the FlexStation III microplate reader and the ATP Assay Kit (SIGMA-ALDRICH) following the manufacturer's instructions. The kit provides extremely sensitive results, detecting ATP release of 10-100 mammalian cells/well, based on the firefly luciferase-catalyzed oxidation of D-luciferin in the presence of ATP, which the amount of ATP is quantified by the amount of light (hv) produced. Recordings of the luminescence intensity of 5×10^4 cells in black clear bottom of 96 wells plates were acquired at rest (point 0 h), 1 h, 24 h and 72 h after NaCl challenge (depolarizing agent).
In order to test whether the reduced level of ATP was caused by the increased activity of Na+/K+ ATPase transporter, Vero cells were treated with 0.4, 0.8 and 1.1% of BREATHOX® POWDER in presence or absence of 5 μM ouabain (Na+/K+ ATPase transporter inhibitor). Changes in total ATP concentration in Vero cells exposed to increasing concentrations of BREATHOX® POWDER with or without 5 μM ouabain for 1 hour was determined by plate microfluorimetry recordings with the FlexStation III microplate reader and the ATP Assay Kit (SIGMA-Aldrich) following the manufacturer's instructions. […]

C[C@@H]1O[C@@H](O[C@H]2C[C@@H](O)[C@]3(CO)[C@H]4[C@H](O)C[C@]5(C)[C@@H](C6=CC(=O)OC6)CC[C@]5(O)[C@@H]4CC[C@]3(O)C2)[C@H](O)[C@H](O)[C@H]1O [ouabain]
decrease in ATP level caused by BREATHOX POWDER: significantly reversed
